Laboratory results published in patent publication US6476056B2, “Heterocycle substituted aryloxyaniline derivatives and their use as MDR ligands” (Taisho Pharmaceutical Co., Ltd., priority 1997, dated 2002).
pIC50: −log10 of the molar value.

Target: T1, MDR (Rattus norvegicus, UniProt P16257)
T1 construct: Crude mitochondria fractions prepared from rat cerebral cortex were used as a receptor sample; from tissue; host or cells: rat cerebral cortex, crude mitochondria fraction
Assay: MDR receptor binding assay ([3H]PK11195 displacement)
Details: 50% inhibition of [3H]PK11195 (2 nM) binding; crude mitochondria fraction from rat cerebral cortex; 4° C., 90 minutes
Procedure: Experiment [MDR Receptor Binding Assay]
Crude mitochondria fractions prepared from rat cerebral cortex were used as a receptor sample, and [^3H]PK11195 was used as a [^3H]-labeled ligand.
A binding assay using the [^3H]-labeled ligand was carried out according to the following method as described in Journal of Pharmacology and Experimental Therapeutics, 262, 971(1992).
Preparation of Receptor Sample: Rat cerebral cortex was homogenized using a Teflon-coated homogenizer in a 10 mM HEPES buffer (pH 7.4) containing 0.32 M sucrose in ten volumes of the wet weight. The homogenate was centrifuged at 900×g for 10 minutes, and the resulting supernatant was centrifuged at 9,000×g for 10 minutes. The precipitate was suspended in a HEPES buffer to give a protein concentration of 1 mg/ml, and centrifuged at 12,000×g for 10 minutes. The resulting precipitate was suspended in a 50 mM HEPES buffer (pH 7.4) to give a crude mitochondria fraction.
MDR Binding Assay: Mitochondria sample (1.0 mg protein/ml), [^3H]PK11195 (2 nM) and the test drug were reacted at 4° C. for 90 minutes. After completion of the reaction, the reaction mixture was filtered with suction through a glass filter (GF/B) treated with 0.3% polyethyleneimine, and the radioactivity on the filter was measured by a liquid scintillation spectrometer.
The binding at the reaction in the presence of 10 μM PK11195 was defined as non-specific binding of [3H]PK11195, and the difference between total binding and non-specific binding was defined as specific binding.

COc1ccccc1CN(C(C)=O)c1ccccc1Oc1ccc(C)cc1 [Compound 102] showed a pIC50 of 9.91.
COc1ccccc1CN(C(C)=O)c1ccccc1Oc1ccccc1OC [Compound 103] gave a pIC50 of 9.14.
Work on COc1cccc(Oc2ccccc2N(Cc2ccccc2OC)C(C)=O)c1 [Compound 104] yielded a pIC50 of 9.46.
COc1ccc(Oc2ccccc2N(Cc2ccccc2OC)C(C)=O)cc1 [Compound 105] was tested, and the pIC50 was 9.79.
Work on COc1ccccc1CN(C(C)=O)c1ccccc1Oc1cccc(F)c1 [Compound 108] yielded a pIC50 of 9.38.
COc1ccccc1CN(C(C)=O)c1ccccc1Oc1ccc(F)cc1 [Compound 109] was tested, and the pIC50 was 9.55.
For COc1ccccc1CN(C(C)=O)c1ccccc1Oc1ccc(Cl)cc1 [Compound 110], the pIC50 was 8.05.
COc1ccccc1CN(C(C)=O)c1ccccc1Oc1ccc(F)cc1F [Compound 112] showed a pIC50 of 9.42.
Compound COc1ccccc1CN(C(C)=O)c1ccc(F)cc1Oc1ccccc1 [Compound 116] has a pIC50 of 9.46.
With COc1ccccc1CN(C(C)=O)c1cc(F)ccc1Oc1ccccc1 [Compound 117] the pIC50 was 9.10.
Compound COc1ccccc1CN(C(C)=O)c1c(F)cccc1Oc1ccccc1 [Compound 118] has a pIC50 of 9.30.
COc1ccccc1CN(C(C)=O)c1ccc(Cl)cc1Oc1ccccc1 [Compound 120] gave a pIC50 of 9.71.
COc1ccccc1CN(C(C)=O)c1cc(Cl)ccc1Oc1ccccc1 [Compound 121] was tested, and the pIC50 was 8.70.
In the case of COc1ccccc1CN(C(C)=O)c1cc(C)ccc1Oc1ccccc1 [Compound 124], the pIC50 was 9.46.
With COc1ccc(Oc2ccccc2)c(N(Cc2ccccc2OC)C(C)=O)c1 [Compound 126] the pIC50 was 8.09.
For COc1ccccc1CN(C(C)=O)c1ccc(Oc2ccccc2)cc1Oc1ccccc1 [Compound 127], the pIC50 was 8.45.
